One test has as its system IL-6. The experiment in a line: IL-6 ELISA in LPS-treated BV2 microglial cells. Type of test: cell-based, mouse. As to conditions: BV2, 1 μg/ml LPS, 18 hours; FIG. 4. On the procedure: Briefly, BV2 microglial cells were plated in 96-well plates at 2×10^5 cells/well in DMEM high glucose medium (Welgene, LM001-05) supplemented with 10% fetal bovine serum (FBS; YOUNG IN, US-FBS-500) and 1% penicillin-streptomycin (P-S; Gibco, 15070063).
Background: An ELISA detects its analyte on a solid surface through an enzyme-linked reagent.

Another test relates to pCREB. Kind of test: pCREB expression (western blot) in primary cultured neurons. Type of test: cell-based, mice. To be noted: mouse primary neuro-glia culture, 4 days treatment, β-actin normalized; FIG. 14C. On the procedure:
(§1) To evaluate the synaptic plasticity, primary neuro-glia culture was prepared from cortices of embryonic day 16 C57/BL6 mice. Cells were collected by mechanical dissection and chemical dissociation with trypsin and DNase treatment and cultured in Neurobasal (NB) and MEM media supplemented with 1% B-27, 2 mM L-glutamine, 5% Fetal Bovine Serum, 5% Horse Serum, 1×MEM-NEAA (non-essential amino acids), and 1% Penicillin-Streptomycin (PS). Cells were cultured in Poly-D-Lysine+Laminin-coated 6-well plates at 2×10^6 cells/well in growth media. After 3 days in vitro (DIV 3), media was changed to NB media supplemented with 2% B-27, 2 mM L-glutamine, and 1% PS. […] Protein was resolved by 8% SDS-PAGE electrophoresis, transferred to polyvinylidene difluoride membranes and blocked with 5% non-fat dry milk for 1 hour at RT. Membrane was immunoblotted using following antibodies; primary antibody: PSD-95 (Abcam, ab18258, 1:2,000), phospho-CREB (Millipore, #06-519, 1:2,000), β-actin (Cell signaling, #3700, 1:3,000), and secondary antibody:HRP-conjugated anti-mouse IgG (AbFrontier, LF-SA8001, 1:5,000), HRP-conjugated anti-rabbit IgG (AbFrontier, LF-SA8002, 1:5,000). Signal was visualized by chemiluminescence methods using ECL solution and imaged using ImageQuant LAS 500 system. […]

The next test relates to neuronal cells (SH-SY5Y). The experiment in a line: ROS production (DCF-DA) in H2O2-treated SH-SY5Y cells. Type of test: cell-based. As to conditions: 100 μM H2O2 24 hours, DONE alone 5 uM, NAC alone 5 uM, NDC = DONE 2.5 uM + NAC 2.5 uM, FIG. 3. On the procedure: SH-SY5Y cells were plated in 96 well plates at 2×10^5 cells/well in DMEM supplemented with 10% fetal bovine serum (FBS; YOUNG IN, US-FBS-500) and 1% penicillin-streptomycin (P-S; Gibco, 15070063). Six hours after seeding, SH-SY5Y cells were treated with 100 μM H2O2 for 24 hours (Sigma, #323381) followed by incubation with DONE alone, NAC alone, and combination of DONE and NAC. After incubation, ROS activity in the cell was measured by adding DCF-DA (Thermo, #D399) containing media. Absorbance was measured using a Synergy HTX Multi-Mode reader (Biotek) with 465 nm excitation and 540 nm emission. Measured fluorescence was normalized to control as follows: (drug-treated group OD−DCF-DA alone O.D)/(control O.D−DCF alone O.D)*100.

The next test concerns PSD-95. Kind of test: PSD-95 expression (western blot) in primary cultured neurons. Type of test: cell-based, mice. As to conditions: mouse primary neuro-glia culture, 4 days treatment, β-actin normalized; FIG. 14B. On the procedure: as §1
Another test concerns ERK pathway. Kind of test: pERK expression in brain (western blot), MCAO-reperfusion model. Type of test: in vivo, Sprague-Dawley rats. On the procedure:
(§2) At 21 days after 45-minutes-MCAO-reperfusion modeling, brains were collected to perform a western blot assay. Brains were homogenized in lysate buffer with protease inhibitor cocktail on ice. Each sample was centrifuged at 13,000 rpm and 4° C. for 30 minutes and the supernatant was used for further experiments. Protein concentration was measured using DC (Bio-rad, #5000112) protein assay. Samples were loaded using the SDS-PAGE system (Bio-rad, #1658004 and #1645052) and transferred onto nitrocellulose membranes (Bio-rad, #17001917 and #1704272). The membranes were blocked for 1 hour at room temperature with Tris-buffered saline-Tween20 (TBS-T) containing 5% skim milk and then incubated with pAKT antibody (Cell signaling, #4060), AKT primary antibody (Santacruz, SC-81434), EPO primary antibody (SCBT, SC-5290), ERK (CST, #9102), pERK (CST, #9101) and GAPDH (Bioworld, #MBOO1H) in 5% skim milk overnight at 4° C. Next day, the membranes were washed 3 times in TBS-T for 5 minutes, incubated with horseradish peroxidase-conjugated (HRP-conjugated) secondary antibody or fluorescence conjugated secondary antibody for 1-2 hours, and then washed 3 times in TBS-T for 5 minutes again. After final wash, the membranes were developed for chemiluminescence or fluorescence system. The signals of chemiluminescence or fluorescence were acquired and quantified by using ECL solution (Bio-rad, #1705062), iBright 1500 (Invitrogen, #CL1500), and Odyssey CLx (LI-COR, #CLX-2383) imaging system.
For orientation: Immunoblotting shows a protein as a band on a membrane.

The subject of another test is EPO. The experiment in a line: EPO expression in brain (western blot), MCAO-reperfusion model. The format is in vivo, Sprague-Dawley rats. As to conditions: 21 days after MCAO. On the procedure:
as §2, with “Brains” for “At 21 days after 45-minutes-MCAO-reperfusion modeling, brains were collected to perform a western blot assay. Brains”, “Each sample was centrifuged at 13,000 rpm and 4° C. for 30 minutes and the supernatant was used for further experiments.” left out

For `CC(=O)N[C@@H](CS)C(=O)O` [NAC, N-acetylcysteine], the “IL-6, mean value relative to LPS (100%)” value in the test on IL-6 is 95.48%. Moreover, in the test with pCREB, the “pCREB expression, mean value normalized to untreated control (CTL 1.0)” value is recorded as 1.13. Further, the “ROS, mean value normalized to control (CTL 100%)” value in the test with neuronal cells (SH-SY5Y) is 88.93%. For the same molecule, in the test on PSD-95, the “PSD-95 expression, mean value normalized to untreated control (CTL 1.0)” value stood at 1.43. The “activation of the ERK pathway” value in the test with ERK pathway (1 mpk donepezil HCl or 120 mpk NAC used alone, FIG. 17) was “did not activate”. Further, the “pERK expression normalized to VEH (100%)” value with ERK pathway (brain, 21 days after MCAO, 1 mpk donepezil HCl, 120 mpk NAC, alone or combined) is reported as 189.77%. For the same molecule, in the test with ERK pathway (brain, 21 days after MCAO, 1 mpk donepezil HCl, 120 mpk NAC, alone or combined, FIG. 17B), the “pERK expression, mean value” came to 99.50. The “EPO expression normalized to VEH (100%)” value in the test on EPO worked out at 151.66%. Besides, the “EPO expression, mean value” with EPO (FIG. 18) was 172.43.

The values are drawn from US12728120B2, “Prevention or treatment of brain disease and adverse effects of cholinesterase inhibitors” (DR. NOAH BIOTECH INC., priority 2021, dated 2026).
